Data published in publication PMC10836395, “Investigation of how gate residues in the main channel affect the catalytic activity of Scytalidium thermophilum catalase” (Acta Crystallographica. Section D, Structural Biology, 2024).

Columns and labels:
[1] = target: CATPO T188A variant (Scytalidium thermophilum (Humicola insolens), UniProt M4GGR5, T207A); assay: biochemical; settings: catechol oxidation by T188A; read-out: K i
[2] = target: CATPO E484I variant (Scytalidium thermophilum (Humicola insolens), UniProt M4GGR5, E503I); assay: biochemical; settings: catechol oxidation by E484I; read-out: K i
Chain of CATPO E484I variant (M4GGR5 entry or part of it E503I): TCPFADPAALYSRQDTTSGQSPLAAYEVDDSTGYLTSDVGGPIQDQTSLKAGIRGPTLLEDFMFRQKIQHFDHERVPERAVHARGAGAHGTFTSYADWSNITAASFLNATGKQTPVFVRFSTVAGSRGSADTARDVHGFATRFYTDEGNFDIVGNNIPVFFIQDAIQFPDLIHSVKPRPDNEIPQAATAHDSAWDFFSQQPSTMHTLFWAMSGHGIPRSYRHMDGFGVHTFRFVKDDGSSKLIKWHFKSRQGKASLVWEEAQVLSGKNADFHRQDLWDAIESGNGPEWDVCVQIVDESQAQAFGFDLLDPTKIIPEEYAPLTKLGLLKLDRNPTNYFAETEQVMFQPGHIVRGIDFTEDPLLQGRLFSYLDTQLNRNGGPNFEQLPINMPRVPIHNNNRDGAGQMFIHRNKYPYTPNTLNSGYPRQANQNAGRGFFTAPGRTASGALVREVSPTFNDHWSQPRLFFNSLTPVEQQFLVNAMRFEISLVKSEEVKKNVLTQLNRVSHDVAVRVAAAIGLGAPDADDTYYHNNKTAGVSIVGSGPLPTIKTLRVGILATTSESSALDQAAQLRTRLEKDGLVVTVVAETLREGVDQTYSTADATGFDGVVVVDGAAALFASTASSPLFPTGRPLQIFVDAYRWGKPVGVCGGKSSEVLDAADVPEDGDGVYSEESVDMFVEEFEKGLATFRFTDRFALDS

[3] = target: CATPO E484A variant (Scytalidium thermophilum (Humicola insolens), UniProt M4GGR5, E503A); assay: biochemical; settings: catechol oxidation by E484A; read-out: K i
Chain of CATPO E484A variant (M4GGR5 entry or part of it E503A): as the sequence (M4GGR5 entry or part of it E503I) above

[4] = target: CATPO T188F variant (Scytalidium thermophilum (Humicola insolens), UniProt M4GGR5, T207F); assay: biochemical; settings: catechol oxidation by T188F; read-out: K i
Chain of CATPO T188F variant (M4GGR5 entry or part of it T207F): as the sequence (M4GGR5 entry or part of it E503I) above

[5] = target: CATPO (Scytalidium thermophilum (Humicola insolens), UniProt M4GGR5); assay: Inhibition of catechol oxidation; assay type: biochemical
Chain of CATPO (M4GGR5 entry or part of it): as the sequence (M4GGR5 entry or part of it E503I) above

[6] = target: mammalian catalase; design: method as in Vetrano et al., 2005; settings: ref Vetrano et al., 2005; cited from earlier work
[7] = target: CATPO T188I variant (Scytalidium thermophilum (Humicola insolens), UniProt M4GGR5, T207I); assay: biochemical; settings: catechol oxidation by T188I; read-out: K i
Chain of CATPO T188I variant (M4GGR5 entry or part of it T207I): as the sequence (M4GGR5 entry or part of it E503I) above

[8] = target: CATPO T188D variant (Scytalidium thermophilum (Humicola insolens), UniProt M4GGR5, T207D); assay: biochemical; settings: catechol oxidation by T188D; read-out: K i
Chain of CATPO T188D variant (M4GGR5 entry or part of it T207D): as the sequence (M4GGR5 entry or part of it E503I) above

[9] = target: CATPO E484D variant (Scytalidium thermophilum (Humicola insolens), UniProt M4GGR5, E503D); assay: biochemical; settings: catechol oxidation by E484D; read-out: K i
Chain of CATPO E484D variant (M4GGR5 entry or part of it E503D): as the sequence (M4GGR5 entry or part of it E503I) above

Chain of CATPO T188A variant (M4GGR5 entry or part of it T207A): as the sequence (M4GGR5 entry or part of it E503I) above

[F-].[Na+] [NaF, sodium fluoride]
Ki [1]: 0.65 ± 0.1 mM | Ki [2]: 5.5 ± 0.2 mM | Ki [3]: 7.8 ± 1.1 mM | Ki [4]: 6.4 ± 0.4 mM | inhibition type ([5]; catechol oxidase activity of wild-type CATPO, Lineweaver–Burk): uncompetitive | Ki ([5]; catechol oxidation by CATPO, catechol 1 to 100 mM, read-out: K i): 0.67 ± 0.1 mM | Ki [6]: 0.75 mM | inhibition type [6]: uncompetitive | Ki [7]: 5.8 ± 0.4 mM | Ki [8]: 5 ± 0.5 mM | Ki [9]: 0.66 ± 0.1 mM
